In patent US7851650B2, “Compounds for treating inflammation and pain” (Olatec Industries LLC, priority 2009, dated 2010):

System: arachidonic acid induced ear swelling
Assay: topical arachidonic acid induced ear swelling model in mice
Assay type: in vivo
Settings: male ICR mice, applied 30 min before and 15 min after arachidonic acid, active compound 2 mg/ear x 2, indomethacin 3 mg/ear x 2, relative to lauryl lactate vehicle
Description: Male ICR mice weighing 22±2 g were used in the experiment. Arachidonic acid (2 mg in 20 μL acetone) was applied topically onto the anterior and posterior surfaces of the right ear of test animals. […] Ear swelling was then measured using a Dyer model micrometer gauge at 60, 90 and 120 minutes after arachidonic acid induction of ear edema as an index of inflammation.

SMILES	%, ear swelling inhibition after arachidonic acid, 60 min. [%]	%, ear swelling inhibition after arachidonic acid, 90 min. [%]	%, ear swelling inhibition after arachidonic acid, 120 min. [%]
CS(=O)(=O)CCC(NCl)C(=O)O (stereo not drawn) [Active compound/lauryl lactate, 2-N chloro-4-methylsulfonyl-butyric acid]	33	31	34
COc1ccc2c(c1)c(CC(=O)O)c(C)n2C(=O)c1ccc(Cl)cc1 [Indomethacin/lauryl lactate, indomethacin]	71	65	70
